Eight molecules from the supplement of paper PMC11061612 can be followed below.

Assay [1] concerns TC-YIK (Other Solid Carcinomas). The assay can be described thus: Bliss excess, mean over the matrix (fraction); higher = more synergy. In outline:
(§1)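 Cell lines grown in DMEM/F12 or RPMI with 10% FBS were plated in 1536-well plates and held 24 hours at 37°C, 5% CO2 before 72 hours of exposure to two-drug dose matrices, with DMSO typically at 0.2%. CellTiter-Glo 2.0 luminescence gave viability, which was converted to inhibition. Vehicle wells were set to 0 and blank wells to 1. Combination Emax is the second-highest inhibition in the matrix, and Bliss excess is the observed combination effect minus the expected EA + EB − EA·EB, where EA and EB are the single-agent effects.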

Assay [2] has as its system FU-OV-1 (Ovarian Carcinoma). The assay is described as above. In outline: as §1
In assay [3] the test system is D-392MG (Glioblastoma). The assay can be described thus: combination Emax (second highest fraction inhibited in the dose matrix, 72 h); higher = more inhibition; extreme values may be limits of the assay. Summed up: as §1
Assay [4] relates to TC-YIK (Other Solid Carcinomas). The assay is described as above. Summed up: as §1
For assay [5], the system named is KG-1 (Acute Myeloid Leukemia). The assay is described as above. Summed up: as §1
The test system of assay [6] is HCC1143 (Breast Carcinoma). The description is as above. Summed up: as §1
The subject of assay [7] is SNU-61 (Colorectal Carcinoma). The description is as above. In outline: as §1
In assay [8] the test system is MEG-01 (Chronic Myelogenous Leukemia). The assay is described as above. In outline: as §1
The test system of assay [9] is A172 (Glioblastoma). The assay is described as above. In outline: as §1
In assay [10] the test system is HOP-92 (Non-Small Cell Lung Carcinoma). Described as above. Summed up: as §1
Assay [11] concerns CS1 (Chondrosarcoma). Described as above. In outline:
as §1

In assay [12] the test system is JHH-6 (Hepatocellular Carcinoma). Described as above. Summed up:
as §1

In assay [13] the test system is FU-OV-1 (Ovarian Carcinoma). The assay is described as above. In outline:
as §1

Assay [14] relates to U-118-MG (Low Grade Glioma). The description is as above. In outline: as §1
Assay [15] concerns PA-TU-8902 (Pancreatic Carcinoma). Described as above. Summed up: as §1
For assay [16], the system named is GDM-1 (Acute Myeloid Leukemia). The assay is described as above. In outline: as §1
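Throughout, for Bliss excess, mean over the matrix: after 72 h of two-drug dosing.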

As to `NC1(C(=O)N[C@@H](CCO)c2ccc(Cl)cc2)CCN(c2ncnc3[nH]ccc23)CC1` [Capivasertib] + CC(C)n1c(=O)n(C)c2cnc3cc(F)c(-c4ccc(OCCCN5CCCCC5)nc4)cc3c21 [AZD1390] (first compound max 10 µM, 7x7, partner max 0.3 µM), the Bliss excess in [1] was -0.0346; in assay [2], -0.0541. Besides, the “combination Emax” value in assay [3] amounted to 0.228; in [4], 0.17; in assay [5] it was 0.241; in assay [6] it was 0.174; in assay [7], 0.146; in [8] it was 0.256. Further, the “combination Emax” value in assay [9] is 0.226; in [10] it was 0.376; in assay [11], 0.298; in [12], 0.309; in assay [13] it was 0.253; in assay [14] it was 0.47. Further, the “combination Emax” value was 0.278 in assay [15] and 0.401 in assay [16].
With `Cn1cnc2c(F)c(Nc3ccc(Br)cc3Cl)c(C(=O)NOCCO)cc21` [Selumetinib] + C=CCn1c(=O)c2cnc(Nc3ccc(N4CCN(C)CC4)cc3)nc2n1-c1cccc(C(C)(C)O)n1 [AZD1775] (first compound max 10 µM, partner max 1 µM), the values for the Bliss excess in assay [1] and in assay [2] were -0.03 and -0.015, respectively. Also, the “combination Emax” value in assay [3] stood at 0.263; in assay [4], 0.826; in [5], 0.587; in [6], 0.528; in assay [7] it was 0.527; in assay [8] it was 0.974. Further, the “combination Emax” value in [9] worked out at 0.365; in assay [10], 0.503; in assay [11], 0.386; in assay [12], 0.297; in [13], 0.47; in assay [14], 0.327. For the same molecule, the “combination Emax” value amounted to 0.571 in assay [15] and 0.898 in assay [16].
Take `Cn1cnc2c(F)c(Nc3ccc(Br)cc3Cl)c(C(=O)NOCCO)cc21` [Selumetinib] + C[C@@H]1COCCN1C2=NC(=NC(=C2)C3(CC3)[S@](=N)(=O)C)C4=C5C=CNC5=NC=C4 [AZD6738] (first compound max 10 µM, 7x7, partner max 10 µM): the Bliss excess was -0.0582 in assay [1] and 0.0621 in assay [2]. The “combination Emax” value amounted to 0.302 in assay [3]; 0.865 in [4]; 0.787 in assay [5]; 0.766 in assay [6]; 0.527 in [7]; 0.975 in assay [8]. Besides, the “combination Emax” value in assay [9] came to 0.549; in assay [10], 0.398; in assay [11] it was 0.472; in assay [12], 0.445; in [13], 0.487; in [14] it was 0.479. Besides, the entries for the “combination Emax” value in [15] and in assay [16] were 0.357 and 0.755, respectively.
With `NC1(C(=O)N[C@@H](CCO)c2ccc(Cl)cc2)CCN(c2ncnc3[nH]ccc23)CC1` [Capivasertib] + Cn1cnc2c(F)c(Nc3ccc(Br)cc3Cl)c(C(=O)NOCCO)cc21 [Selumetinib] (first compound max 10 µM, 7x7, partner max 10 µM), the Bliss excess in [1] is 0.0245; in assay [2], -0.0316. Also, the “combination Emax” value in [3] turned out to be 0.484; in [4] it was 0.496; in assay [5], 0.37; in assay [6], 0.317; in assay [7], 0.46; in [8], 0.825. In addition, the “combination Emax” value amounted to 0.48 in assay [9]; 0.685 in [10]; 0.502 in assay [11]; 0.458 in assay [12]; 0.592 in assay [13]; 0.663 in assay [14]. Also, the “combination Emax” value was 0.557 in assay [15] and 0.73 in [16].
For the molecule `CS(=O)(=O)CCNCc1ccc(-c2ccc3ncnc(Nc4ccc(OCc5cccc(F)c5)c(Cl)c4)c3c2)o1` [Lapatinib] + Cn1cnc2c(F)c(Nc3ccc(Br)cc3Cl)c(C(=O)NOCCO)cc21 [Selumetinib] (first compound max 10 µM, 7x7, partner max 10 µM), the Bliss excess in assay [1] was 0.0665; in assay [2], -0.0698. The “combination Emax” value in assay [3] came out at 0.396; in assay [4], 0.531; in assay [8], 0.644; in assay [11] it was 0.554; in assay [13], 0.55.
For `COc1nnc2ccc(N3CCC(c4ccc(OCCN5CCN(C)C(=O)[C@H]5C)cc4)CC3)nn12` [AZD5153] + CCN(CCO)CCCOc1ccc2c(Nc3cc(CC(=O)Nc4cccc(F)c4)[nH]n3)ncnc2c1 [AZD2811] (first compound max 1 µM, 7x7, partner max 1 µM), the Bliss excess was -0.106 in assay [1] and -0.0571 in [2]. The “combination Emax” value in assay [3] was 0.456; in assay [4], 0.915; in assay [5], 0.789; in [6], 0.431; in assay [7] it was 0.429; in [8], 0.895. In addition, the “combination Emax” value came out at 0.574 in assay [9]; 0.402 in assay [10]; 0.46 in [11]; 0.552 in assay [12]; 0.691 in assay [13]; 0.362 in [14]. Besides, the “combination Emax” value was found to be 0.323 in [15] and 0.952 in [16].
Take `NC1(C(=O)N[C@@H](CCO)c2ccc(Cl)cc2)CCN(c2ncnc3[nH]ccc23)CC1` [Capivasertib] + C[C@@H]1COCCN1C2=NC(=NC(=C2)C3(CC3)[S@](=N)(=O)C)C4=C5C=CNC5=NC=C4 [AZD6738] (first compound max 10 µM, 7x7, partner max 10 µM): the Bliss excess was 0.0091 in assay [1] and -0.0313 in assay [2]. The “combination Emax” value in assay [3] came to 0.464; in [4] it was 0.901; in assay [5], 0.739; in [6], 0.725; in [7] it was 0.309; in assay [8], 0.945. Besides, the “combination Emax” value is 0.779 in assay [9]; 0.541 in assay [10]; 0.621 in assay [11]; 0.506 in assay [12]; 0.35 in assay [13]; 0.685 in assay [14]. For the same molecule, the “combination Emax” value in assay [15] worked out at 0.544; in assay [16], 0.734.
As for `COc1nnc2ccc(N3CCC(c4ccc(OCCN5CCN(C)C(=O)[C@H]5C)cc4)CC3)nn12` [AZD5153] + C[C@@H]1COCCN1C2=NC(=NC(=C2)C3(CC3)[S@](=N)(=O)C)C4=C5C=CNC5=NC=C4 [AZD6738] (first compound max 1 µM, 7x7, partner max 10 µM), the Bliss excess was -0.0626 in assay [1] and -0.0452 in [2]. Moreover, the “combination Emax” value in assay [3] amounted to 0.514; in assay [4], 0.965; in assay [5] it was 0.905; in [6] it was 0.824; in [7] it was 0.544; in assay [8] it was 0.966. Moreover, the “combination Emax” value in assay [9] turned out to be 0.739; in [10] it was 0.374; in assay [11], 0.661; in [12] it was 0.705; in assay [13], 0.744; in assay [14], 0.611. Moreover, the “combination Emax” value was determined as 0.392 in [15] and 0.943 in [16].
